From ChEMBL document CHEMBL1127201, “Biological activity of 3-aminopropyl (methyl) phosphinic acid, a potent and selective GABAB agonist with CNS activity” (Bioorg Med Chem Lett, 1993) come the findings set out here.

The IC50 is the point on the concentration scale where inhibition reaches its midpoint. Read a high IC50 as a need for much substance.

The target in the assay is GABA B receptor (Rattus norvegicus, UniProt O88871+Q9Z0U4). Kind of assay: In vitro displacement of [3H]GABA from Gamma-aminobutyric acid type B receptor sites in rat brain membranes. The format is cell membranes. (In general: Displacement assays read how much labelled ligand stays bound in the presence of the test substance.)
Chain of GABA B receptor (Q9Z0U4 whole entry): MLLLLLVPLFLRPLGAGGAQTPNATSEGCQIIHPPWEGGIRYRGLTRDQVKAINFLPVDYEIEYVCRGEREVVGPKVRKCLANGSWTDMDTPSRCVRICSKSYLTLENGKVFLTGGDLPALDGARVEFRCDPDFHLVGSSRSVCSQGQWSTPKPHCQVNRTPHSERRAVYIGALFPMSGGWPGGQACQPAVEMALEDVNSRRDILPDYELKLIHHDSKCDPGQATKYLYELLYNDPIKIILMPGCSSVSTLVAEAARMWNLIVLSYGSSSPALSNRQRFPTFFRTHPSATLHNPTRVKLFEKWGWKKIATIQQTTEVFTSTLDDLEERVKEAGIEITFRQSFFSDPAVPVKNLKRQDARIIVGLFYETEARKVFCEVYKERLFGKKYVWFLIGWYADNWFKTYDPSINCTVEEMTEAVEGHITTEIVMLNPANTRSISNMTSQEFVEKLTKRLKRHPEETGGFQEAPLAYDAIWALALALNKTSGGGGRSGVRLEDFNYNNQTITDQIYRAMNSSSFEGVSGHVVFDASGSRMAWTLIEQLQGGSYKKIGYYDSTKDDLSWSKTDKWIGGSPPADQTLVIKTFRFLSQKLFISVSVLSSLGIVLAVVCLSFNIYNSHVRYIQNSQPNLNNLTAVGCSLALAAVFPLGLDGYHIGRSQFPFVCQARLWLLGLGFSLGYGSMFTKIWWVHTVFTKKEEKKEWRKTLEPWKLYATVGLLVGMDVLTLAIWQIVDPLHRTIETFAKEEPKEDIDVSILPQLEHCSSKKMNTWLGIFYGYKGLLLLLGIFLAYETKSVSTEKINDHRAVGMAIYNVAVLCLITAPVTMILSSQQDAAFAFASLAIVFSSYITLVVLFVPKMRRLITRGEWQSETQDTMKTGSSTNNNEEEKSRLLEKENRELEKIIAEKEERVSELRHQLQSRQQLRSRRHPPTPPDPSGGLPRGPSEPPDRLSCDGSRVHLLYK
Chain of GABA B receptor (O88871 whole entry): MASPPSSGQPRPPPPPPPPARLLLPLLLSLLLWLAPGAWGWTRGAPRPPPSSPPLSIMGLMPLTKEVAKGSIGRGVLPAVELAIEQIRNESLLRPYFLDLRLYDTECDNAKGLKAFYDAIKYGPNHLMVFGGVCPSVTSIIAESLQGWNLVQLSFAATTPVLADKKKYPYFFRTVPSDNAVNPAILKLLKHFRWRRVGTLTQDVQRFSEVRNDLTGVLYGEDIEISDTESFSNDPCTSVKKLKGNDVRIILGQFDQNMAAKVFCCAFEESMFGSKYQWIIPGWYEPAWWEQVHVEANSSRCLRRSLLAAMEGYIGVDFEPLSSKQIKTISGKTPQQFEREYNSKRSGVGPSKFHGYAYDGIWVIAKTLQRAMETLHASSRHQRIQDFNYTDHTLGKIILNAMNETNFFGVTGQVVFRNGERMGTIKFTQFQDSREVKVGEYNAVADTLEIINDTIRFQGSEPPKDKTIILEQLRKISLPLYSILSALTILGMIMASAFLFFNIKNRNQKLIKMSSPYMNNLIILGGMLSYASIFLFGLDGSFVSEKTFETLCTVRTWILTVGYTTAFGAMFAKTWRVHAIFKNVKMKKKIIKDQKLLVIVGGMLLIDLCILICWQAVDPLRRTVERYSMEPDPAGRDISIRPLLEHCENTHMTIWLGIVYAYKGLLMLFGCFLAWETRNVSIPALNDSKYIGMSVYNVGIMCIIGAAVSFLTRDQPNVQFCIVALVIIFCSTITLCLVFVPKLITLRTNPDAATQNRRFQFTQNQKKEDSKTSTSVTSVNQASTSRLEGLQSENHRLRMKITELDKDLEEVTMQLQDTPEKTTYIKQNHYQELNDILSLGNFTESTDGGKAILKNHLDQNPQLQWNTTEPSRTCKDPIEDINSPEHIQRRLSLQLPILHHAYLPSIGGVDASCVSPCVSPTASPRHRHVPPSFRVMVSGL
The compound `NCCC[PH](=O)O` yielded an IC50 of 0.003 µM. Next, `NCCOS(=O)(=O)O`: more than 100 µM; `CCOC(OCC)P(=O)(O)CCCN`: 2.5 µM; `NCCCP(=O)(O)O`: 2 µM. Next, `NCCCS(=O)(=O)O` [TRAMIPROSATE]: 2 µM. On to `CCP(=O)(O)CCCN`, for which the IC50 is 3 µM. Under `NCCOP(=O)(O)O` [PHOSPHORYLETHANOLAMINE] stands more than 100 µM; under `CCCCCCP(=O)(O)CCCN`, 1 µM.
